Test results as given in ChEMBL document CHEMBL1149220, “1-(2-Naphthyl)-1H-pyrazole-5-carboxylamides as potent factor Xa inhibitors. Part 2: A survey of P4 motifs” (Bioorg Med Chem Lett, 2004).

Tested on: not listed separately
Assay: Volume of distribution in rat
Format: ADME, organism-based
Settings: in vivo

Row | SMILES | Vd [L/kg]
1 | Cc1cc(C(=O)Nc2ccc(-c3ccccc3CN)cc2F)n(-c2cc3ccccc3cc2F)n1 | 11
2 | Cc1cc(C(=O)Nc2ccc(N3CCOCC3=O)cc2F)n(-c2cc3ccccc3cc2S(C)(=O)=O)n1 | 0.8
3 | Cc1cc(C(=O)Nc2ccc(-c3ccccc3CN(C)C)cc2F)n(-c2ccc3cc(Cl)ccc3c2)n1 | 22.1
4 | Cc1cc(C(=O)Nc2ccc(-c3ccccc3CN(C)C)cc2F)n(-c2cc3ccccc3cc2S(C)(=O)=O)n1 | 27.3
5 | Cc1cc(C(=O)Nc2ccc(-c3ccccc3S(C)(=O)=O)cc2F)n(-c2cc3ccccc3cc2S(C)(=O)=O)n1 | 2.6

Target: T1, Vitamin K-dependent protein C (Homo sapiens, UniProt P04070)
T1 sequence (P04070 43-197 limits assumed): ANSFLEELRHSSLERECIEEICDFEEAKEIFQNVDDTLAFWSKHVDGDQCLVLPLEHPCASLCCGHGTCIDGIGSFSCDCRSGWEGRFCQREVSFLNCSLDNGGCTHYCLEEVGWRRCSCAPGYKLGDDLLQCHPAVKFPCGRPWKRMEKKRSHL
T1 sequence (P04070 212-461 limits assumed): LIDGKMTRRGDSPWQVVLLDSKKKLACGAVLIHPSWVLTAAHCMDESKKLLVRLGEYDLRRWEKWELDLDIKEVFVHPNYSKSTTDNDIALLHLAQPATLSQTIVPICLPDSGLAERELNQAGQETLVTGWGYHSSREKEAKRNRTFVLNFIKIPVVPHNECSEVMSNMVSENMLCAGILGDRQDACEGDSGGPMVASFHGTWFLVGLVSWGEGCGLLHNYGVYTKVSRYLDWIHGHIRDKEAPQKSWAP
Assay: Inhibitory concentration of compound was determined against activated protein C (aPC)
Settings: not given

Row | SMILES | IC50 [nM]
6 | Cc1cc(C(=O)Nc2ccc(-c3ccccc3CN)cc2F)n(-c2cc3ccccc3cc2F)n1 | > 10000
7 | Cc1cc(C(=O)Nc2ccc(-c3ccccc3CN(C)C)cc2F)n(-c2ccc3cc(Cl)ccc3c2)n1 | > 10000
8 | Cc1cc(C(=O)Nc2ccc(-c3ccccc3CN(C)C)cc2F)n(-c2cc3ccccc3cc2S(C)(=O)=O)n1 | > 10000
9 | Cc1cc(C(=O)Nc2ccc(-c3ccccc3S(C)(=O)=O)cc2F)n(-c2cc3ccccc3cc2S(C)(=O)=O)n1 | > 10000

Target: T2, Coagulation factor X (Homo sapiens, UniProt P00742)
T2 sequence (P00742 41-179 limits assumed): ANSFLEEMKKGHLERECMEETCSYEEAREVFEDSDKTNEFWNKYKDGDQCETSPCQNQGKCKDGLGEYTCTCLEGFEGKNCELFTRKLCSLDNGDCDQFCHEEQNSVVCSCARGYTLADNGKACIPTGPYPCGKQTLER
T2 sequence (P00742 235-488 limits assumed): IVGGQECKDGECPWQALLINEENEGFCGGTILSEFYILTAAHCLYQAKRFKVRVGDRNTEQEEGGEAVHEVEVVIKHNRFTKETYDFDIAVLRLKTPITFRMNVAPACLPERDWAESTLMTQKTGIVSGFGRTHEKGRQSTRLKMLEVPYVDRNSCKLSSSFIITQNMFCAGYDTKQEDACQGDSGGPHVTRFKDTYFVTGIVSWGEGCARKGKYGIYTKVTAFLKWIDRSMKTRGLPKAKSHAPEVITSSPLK
Assay: Inhibitory concentration against human Coagulation factor X
Settings: not given

Row | SMILES | IC50 [nM]
10 | Cc1cc(C(=O)Nc2ccc(-c3ccccc3CN)cc2F)n(-c2cc3ccccc3cc2F)n1 | 2
11 | Cc1cc(C(=O)Nc2ccc(-c3ccccc3CN(C)C)cc2)n(-c2ccc3cc(Cl)ccc3c2)n1 | 5
12 | Cc1cc(C(=O)Nc2ccc(N3CCOCC3=O)cc2)n(-c2ccc3cc(Cl)ccc3c2)n1 | 1
13 | Cc1cc(C(=O)Nc2ccc(N3CCOCC3=O)cc2F)n(-c2cc3ccccc3cc2S(C)(=O)=O)n1 | 2
14 | Cc1cc(C(=O)Nc2ccc(-c3ccccc3CN(C)C)cc2F)n(-c2ccc3cc(Cl)ccc3c2)n1 | 2
15 | Cc1cc(C(=O)Nc2ccc(N3CCOCC3=O)cc2F)n(-c2ccc3cc(Cl)ccc3c2)n1 | 1
16 | Cc1cc(C(=O)Nc2ccc(N3CCCN(C)CC3)cc2)n(-c2ccc3cc(Cl)ccc3c2)n1 | 22
17 | Cc1cc(C(=O)Nc2ccc(-c3ccccc3S(N)(=O)=O)cn2)n(-c2ccc3cc(Cl)ccc3c2)n1 | 5
18 | Cc1cc(C(=O)Nc2ccc(N3CCOCC3=O)cc2F)n(-c2cc3ccccc3cc2F)n1 | 2
19 | Cc1cc(C(=O)Nc2ncc(-c3ccccc3S(N)(=O)=O)cn2)n(-c2ccc3cc(Cl)ccc3c2)n1 | 7
20 | Cc1cc(C(=O)Nc2ccc(-c3ccccc3CN(C)C)cc2F)n(-c2cc3ccccc3cc2S(C)(=O)=O)n1 | 7
21 | Cc1cc(C(=O)Nc2ccc(-c3ccccc3S(C)(=O)=O)cc2F)n(-c2cc3ccccc3cc2S(C)(=O)=O)n1 | 9

Tested on: not listed separately
Assay: Half-life determined in rat
Format: ADME, organism-based
Settings: in vivo

Row | SMILES | half-life [h]
22 | Cc1cc(C(=O)Nc2ccc(-c3ccccc3CN)cc2F)n(-c2cc3ccccc3cc2F)n1 | 2.5
23 | Cc1cc(C(=O)Nc2ccc(N3CCOCC3=O)cc2F)n(-c2cc3ccccc3cc2S(C)(=O)=O)n1 | 0.5
24 | Cc1cc(C(=O)Nc2ccc(-c3ccccc3CN(C)C)cc2F)n(-c2ccc3cc(Cl)ccc3c2)n1 | 7.2
25 | Cc1cc(C(=O)Nc2ccc(-c3ccccc3CN(C)C)cc2F)n(-c2cc3ccccc3cc2S(C)(=O)=O)n1 | 2.8
26 | Cc1cc(C(=O)Nc2ccc(-c3ccccc3S(C)(=O)=O)cc2F)n(-c2cc3ccccc3cc2S(C)(=O)=O)n1 | 0.7

Target: T1, Vitamin K-dependent protein C
Assay: Inhibitory concentration of compound was determined against activated protein C
Settings: not given

Row | SMILES | IC50 [nM]
27 | Cc1cc(C(=O)Nc2ccc(N3CCOCC3=O)cc2F)n(-c2cc3ccccc3cc2S(C)(=O)=O)n1 | > 10000

Target: Plasminogen
Sequence (Q01177 97-581 limits assumed): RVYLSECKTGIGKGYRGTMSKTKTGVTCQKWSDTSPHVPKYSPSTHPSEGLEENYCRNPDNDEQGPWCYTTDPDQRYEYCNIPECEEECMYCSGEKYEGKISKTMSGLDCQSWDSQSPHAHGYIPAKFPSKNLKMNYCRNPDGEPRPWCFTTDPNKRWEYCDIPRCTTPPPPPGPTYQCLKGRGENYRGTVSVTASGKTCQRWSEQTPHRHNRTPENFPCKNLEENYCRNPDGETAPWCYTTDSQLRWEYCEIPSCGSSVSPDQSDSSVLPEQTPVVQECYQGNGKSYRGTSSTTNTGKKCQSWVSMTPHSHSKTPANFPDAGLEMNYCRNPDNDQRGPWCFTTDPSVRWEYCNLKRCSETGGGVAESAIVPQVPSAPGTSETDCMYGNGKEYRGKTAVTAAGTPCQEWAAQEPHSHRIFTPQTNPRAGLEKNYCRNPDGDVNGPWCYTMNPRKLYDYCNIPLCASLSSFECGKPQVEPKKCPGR
Sequence (Q01177 582-812 limits assumed): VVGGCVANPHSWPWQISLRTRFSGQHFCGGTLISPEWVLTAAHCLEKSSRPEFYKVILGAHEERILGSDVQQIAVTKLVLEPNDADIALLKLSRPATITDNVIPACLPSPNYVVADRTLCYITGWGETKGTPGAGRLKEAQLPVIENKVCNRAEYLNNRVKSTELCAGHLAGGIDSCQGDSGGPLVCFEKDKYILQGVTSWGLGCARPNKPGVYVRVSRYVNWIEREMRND
Assay: Inhibitory concentration of compound was determined against Plasmin
Settings: not given

Row | SMILES | IC50 [nM]
28 | Cc1cc(C(=O)Nc2ccc(-c3ccccc3CN)cc2F)n(-c2cc3ccccc3cc2F)n1 | > 10000
29 | Cc1cc(C(=O)Nc2ccc(N3CCOCC3=O)cc2F)n(-c2cc3ccccc3cc2S(C)(=O)=O)n1 | > 10000
30 | Cc1cc(C(=O)Nc2ccc(-c3ccccc3CN(C)C)cc2F)n(-c2ccc3cc(Cl)ccc3c2)n1 | > 10000
31 | Cc1cc(C(=O)Nc2ccc(-c3ccccc3CN(C)C)cc2F)n(-c2cc3ccccc3cc2S(C)(=O)=O)n1 | > 10000
32 | Cc1cc(C(=O)Nc2ccc(-c3ccccc3S(C)(=O)=O)cc2F)n(-c2cc3ccccc3cc2S(C)(=O)=O)n1 | > 10000

Tested on: not listed separately
Assay: Bioavailability in rat
Format: ADME, organism-based
Settings: in vivo

Row | SMILES | bioavailability [%]
33 | Cc1cc(C(=O)Nc2ccc(-c3ccccc3CN)cc2F)n(-c2cc3ccccc3cc2F)n1 | 22.8
34 | Cc1cc(C(=O)Nc2ccc(N3CCOCC3=O)cc2F)n(-c2cc3ccccc3cc2S(C)(=O)=O)n1 | 19.3
35 | Cc1cc(C(=O)Nc2ccc(-c3ccccc3CN(C)C)cc2F)n(-c2ccc3cc(Cl)ccc3c2)n1 | 35.2
36 | Cc1cc(C(=O)Nc2ccc(-c3ccccc3CN(C)C)cc2F)n(-c2cc3ccccc3cc2S(C)(=O)=O)n1 | 18
37 | Cc1cc(C(=O)Nc2ccc(-c3ccccc3S(C)(=O)=O)cc2F)n(-c2cc3ccccc3cc2S(C)(=O)=O)n1 | 18

Tested on: not listed separately
Assay: Clearance rate in rat
Format: ADME, organism-based
Settings: in vivo

Row | SMILES | clearance [mL/min/kg]
38 | Cc1cc(C(=O)Nc2ccc(-c3ccccc3CN)cc2F)n(-c2cc3ccccc3cc2F)n1 | 51.8
39 | Cc1cc(C(=O)Nc2ccc(N3CCOCC3=O)cc2F)n(-c2cc3ccccc3cc2S(C)(=O)=O)n1 | 16.8
40 | Cc1cc(C(=O)Nc2ccc(-c3ccccc3CN(C)C)cc2F)n(-c2ccc3cc(Cl)ccc3c2)n1 | 35.7
41 | Cc1cc(C(=O)Nc2ccc(-c3ccccc3CN(C)C)cc2F)n(-c2cc3ccccc3cc2S(C)(=O)=O)n1 | 114
42 | Cc1cc(C(=O)Nc2ccc(-c3ccccc3S(C)(=O)=O)cc2F)n(-c2cc3ccccc3cc2S(C)(=O)=O)n1 | 41.2

Target: T2, Coagulation factor X
Assay: Binding affinity against Coagulation factor X
Settings: not given

Row | SMILES | Ki [nM]
43 | Cc1cc(C(=O)Nc2ccc(-c3ccccc3CN)cc2F)n(-c2cc3ccccc3cc2F)n1 | 2.4
44 | Cc1cc(C(=O)Nc2ccc(-c3ccccc3CN(C)C)cc2)n(-c2ccc3cc(Cl)ccc3c2)n1 | 1.8
45 | Cc1cc(C(=O)Nc2ccc(N3CCOCC3=O)cc2)n(-c2ccc3cc(Cl)ccc3c2)n1 | 0.3
46 | Cc1cc(C(=O)Nc2ccc(N3CCOCC3=O)cc2F)n(-c2cc3ccccc3cc2S(C)(=O)=O)n1 | 0.8
47 | Cc1cc(C(=O)Nc2ccc(-c3ccccc3CN(C)C)cc2F)n(-c2ccc3cc(Cl)ccc3c2)n1 | 1.5
48 | Cc1cc(C(=O)Nc2ccc(N3CCOCC3=O)cc2F)n(-c2ccc3cc(Cl)ccc3c2)n1 | 0.5
49 | Cc1cc(C(=O)Nc2ccc(-c3ccccc3S(N)(=O)=O)cn2)n(-c2ccc3cc(Cl)ccc3c2)n1 | 1.9
50 | Cc1cc(C(=O)Nc2ccc(N3CCOCC3=O)cc2F)n(-c2cc3ccccc3cc2F)n1 | 0.5
51 | Cc1cc(C(=O)Nc2ncc(-c3ccccc3S(N)(=O)=O)cn2)n(-c2ccc3cc(Cl)ccc3c2)n1 | 2.5
52 | Cc1cc(C(=O)Nc2ccc(-c3ccccc3CN(C)C)cc2F)n(-c2cc3ccccc3cc2S(C)(=O)=O)n1 | 2.4
53 | Cc1cc(C(=O)Nc2ccc(-c3ccccc3S(C)(=O)=O)cc2F)n(-c2cc3ccccc3cc2S(C)(=O)=O)n1 | 1.7

Target: Tissue-type plasminogen activator (Homo sapiens, UniProt P00750)
Sequence (P00750 whole entry): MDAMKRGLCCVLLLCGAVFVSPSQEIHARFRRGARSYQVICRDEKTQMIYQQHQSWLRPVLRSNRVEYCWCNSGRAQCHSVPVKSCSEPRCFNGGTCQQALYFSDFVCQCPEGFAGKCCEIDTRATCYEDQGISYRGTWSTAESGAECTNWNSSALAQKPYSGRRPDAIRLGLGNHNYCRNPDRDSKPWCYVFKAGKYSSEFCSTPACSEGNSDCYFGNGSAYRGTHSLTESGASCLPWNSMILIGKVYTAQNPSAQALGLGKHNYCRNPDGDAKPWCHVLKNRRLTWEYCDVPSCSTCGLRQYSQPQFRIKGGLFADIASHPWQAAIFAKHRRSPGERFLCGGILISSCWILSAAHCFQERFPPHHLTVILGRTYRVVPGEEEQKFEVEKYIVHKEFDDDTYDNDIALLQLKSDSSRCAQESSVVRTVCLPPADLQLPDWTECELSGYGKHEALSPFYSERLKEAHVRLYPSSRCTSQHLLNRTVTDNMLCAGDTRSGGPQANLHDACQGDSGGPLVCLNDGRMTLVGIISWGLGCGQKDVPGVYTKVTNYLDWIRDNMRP
Assay: Inhibitory concentration against tissue type plasminogen activator
Settings: not given

Row | SMILES | IC50 [nM]
54 | Cc1cc(C(=O)Nc2ccc(-c3ccccc3CN)cc2F)n(-c2cc3ccccc3cc2F)n1 | > 10000
55 | Cc1cc(C(=O)Nc2ccc(N3CCOCC3=O)cc2F)n(-c2cc3ccccc3cc2S(C)(=O)=O)n1 | > 10000
56 | Cc1cc(C(=O)Nc2ccc(-c3ccccc3CN(C)C)cc2F)n(-c2ccc3cc(Cl)ccc3c2)n1 | > 10000
57 | Cc1cc(C(=O)Nc2ccc(-c3ccccc3CN(C)C)cc2F)n(-c2cc3ccccc3cc2S(C)(=O)=O)n1 | > 10000
58 | Cc1cc(C(=O)Nc2ccc(-c3ccccc3S(C)(=O)=O)cc2F)n(-c2cc3ccccc3cc2S(C)(=O)=O)n1 | > 10000

Target: Prothrombin (Homo sapiens, UniProt P00734)
Assay: Inhibitory concentration of compound was determined against thrombin
Settings: not given

Row | SMILES | IC50 [nM]
59 | Cc1cc(C(=O)Nc2ccc(-c3ccccc3CN)cc2F)n(-c2cc3ccccc3cc2F)n1 | > 10000
60 | Cc1cc(C(=O)Nc2ccc(N3CCOCC3=O)cc2F)n(-c2cc3ccccc3cc2S(C)(=O)=O)n1 | > 10000
61 | Cc1cc(C(=O)Nc2ccc(-c3ccccc3CN(C)C)cc2F)n(-c2ccc3cc(Cl)ccc3c2)n1 | 5500
62 | Cc1cc(C(=O)Nc2ccc(-c3ccccc3CN(C)C)cc2F)n(-c2cc3ccccc3cc2S(C)(=O)=O)n1 | > 10000
63 | Cc1cc(C(=O)Nc2ccc(-c3ccccc3S(C)(=O)=O)cc2F)n(-c2cc3ccccc3cc2S(C)(=O)=O)n1 | > 10000

Target: Serine protease 1 (Homo sapiens, UniProt P07477)
Sequence (P07477 whole entry): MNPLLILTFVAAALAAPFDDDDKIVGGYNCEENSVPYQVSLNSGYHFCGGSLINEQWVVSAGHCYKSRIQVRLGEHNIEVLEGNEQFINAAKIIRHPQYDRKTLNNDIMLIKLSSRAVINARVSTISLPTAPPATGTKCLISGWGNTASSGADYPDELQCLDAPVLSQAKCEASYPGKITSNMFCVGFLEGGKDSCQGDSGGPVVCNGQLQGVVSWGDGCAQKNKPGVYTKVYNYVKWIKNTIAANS
Assay: Inhibitory concentration of compound was determined against trypsin
Settings: not given

Row | SMILES | IC50 [nM]
64 | Cc1cc(C(=O)Nc2ccc(-c3ccccc3CN)cc2F)n(-c2cc3ccccc3cc2F)n1 | > 10000
65 | Cc1cc(C(=O)Nc2ccc(N3CCOCC3=O)cc2F)n(-c2cc3ccccc3cc2S(C)(=O)=O)n1 | > 10000
66 | Cc1cc(C(=O)Nc2ccc(-c3ccccc3CN(C)C)cc2F)n(-c2ccc3cc(Cl)ccc3c2)n1 | > 10000
67 | Cc1cc(C(=O)Nc2ccc(-c3ccccc3CN(C)C)cc2F)n(-c2cc3ccccc3cc2S(C)(=O)=O)n1 | > 10000
68 | Cc1cc(C(=O)Nc2ccc(-c3ccccc3S(C)(=O)=O)cc2F)n(-c2cc3ccccc3cc2S(C)(=O)=O)n1 | > 10000

Target: Kallikrein-1 (Homo sapiens, UniProt P06870)
Sequence (P06870 whole entry): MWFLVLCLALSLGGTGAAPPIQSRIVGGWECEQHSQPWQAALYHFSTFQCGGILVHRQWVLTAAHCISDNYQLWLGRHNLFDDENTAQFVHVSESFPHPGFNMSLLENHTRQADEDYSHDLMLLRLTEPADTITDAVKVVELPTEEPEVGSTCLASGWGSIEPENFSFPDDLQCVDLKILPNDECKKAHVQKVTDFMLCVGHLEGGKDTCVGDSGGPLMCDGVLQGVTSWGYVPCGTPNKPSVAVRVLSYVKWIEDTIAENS
Assay: Inhibitory concentration of compound was determined against kallikrein
Settings: not given

Row | SMILES | IC50 [nM]
69 | Cc1cc(C(=O)Nc2ccc(-c3ccccc3CN)cc2F)n(-c2cc3ccccc3cc2F)n1 | > 10000
70 | Cc1cc(C(=O)Nc2ccc(N3CCOCC3=O)cc2F)n(-c2cc3ccccc3cc2S(C)(=O)=O)n1 | > 10000
71 | Cc1cc(C(=O)Nc2ccc(-c3ccccc3CN(C)C)cc2F)n(-c2ccc3cc(Cl)ccc3c2)n1 | 9700
72 | Cc1cc(C(=O)Nc2ccc(-c3ccccc3CN(C)C)cc2F)n(-c2cc3ccccc3cc2S(C)(=O)=O)n1 | > 10000
73 | Cc1cc(C(=O)Nc2ccc(-c3ccccc3S(C)(=O)=O)cc2F)n(-c2cc3ccccc3cc2S(C)(=O)=O)n1 | > 10000

Target: T2, Coagulation factor X
Assay: In vitro anticoagulant potency measured in human plasma by thrombin generation (TG) assay expressed as 2 x TG
Format: functional, cell-free
Settings: not given

Row | SMILES | Activity [µM]
74 | Cc1cc(C(=O)Nc2ccc(-c3ccccc3CN)cc2F)n(-c2cc3ccccc3cc2F)n1 | 2.2
75 | Cc1cc(C(=O)Nc2ccc(-c3ccccc3CN(C)C)cc2)n(-c2ccc3cc(Cl)ccc3c2)n1 | 2
76 | Cc1cc(C(=O)Nc2ccc(N3CCOCC3=O)cc2)n(-c2ccc3cc(Cl)ccc3c2)n1 | 3
77 | Cc1cc(C(=O)Nc2ccc(N3CCOCC3=O)cc2F)n(-c2cc3ccccc3cc2S(C)(=O)=O)n1 | 0.44
78 | Cc1cc(C(=O)Nc2ccc(-c3ccccc3CN(C)C)cc2F)n(-c2ccc3cc(Cl)ccc3c2)n1 | 1.7
79 | Cc1cc(C(=O)Nc2ccc(N3CCOCC3=O)cc2F)n(-c2ccc3cc(Cl)ccc3c2)n1 | 5
80 | Cc1cc(C(=O)Nc2ccc(N3CCCN(C)CC3)cc2)n(-c2ccc3cc(Cl)ccc3c2)n1 | 5
81 | Cc1cc(C(=O)Nc2ccc(-c3ccccc3S(N)(=O)=O)cn2)n(-c2ccc3cc(Cl)ccc3c2)n1 | 2
82 | Cc1cc(C(=O)Nc2ccc(N3CCOCC3=O)cc2F)n(-c2cc3ccccc3cc2F)n1 | > 5
83 | Cc1cc(C(=O)Nc2ncc(-c3ccccc3S(N)(=O)=O)cn2)n(-c2ccc3cc(Cl)ccc3c2)n1 | 2
84 | Cc1cc(C(=O)Nc2ccc(-c3ccccc3CN(C)C)cc2F)n(-c2cc3ccccc3cc2S(C)(=O)=O)n1 | 0.64
85 | Cc1cc(C(=O)Nc2ccc(-c3ccccc3S(C)(=O)=O)cc2F)n(-c2cc3ccccc3cc2S(C)(=O)=O)n1 | 1
